Here are results for three compounds from patent US20250059196A1 (SHANGHAI HANSOH BIOMEDICAL CO., LTD., priority 2021, published 2025).

For data set [1], the target named is MALT1 protease activity in TMD8 cells (substrate BCL-10) (Homo sapiens (Human), UniProt Q9UDY8). The data set can be described thus: Intracellular MALT1 protease activity detection (BCL-10 ELISA in TMD8 cells). Type of data set: cell-based. Conditions: undigested BCL-10 by ELISA, 30 min compound then 2 h stimulation cocktail, read-out: Bcl10 TMD8 IC50. In outline:
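TMD8 cells treated 30 min with compound (10000-1.5 nM, 9 points, 3-fold), then stimulated 2 h with cell stimulation cocktail. Undigested BCL-10 in lysates quantified by sandwich ELISA with TMB colour read-out; IC50 from four-parameter variable-slope fit.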

For data set [2], the target named is Recombinant human MALT1/MLT protein (Homo sapiens (Human), UniProt Q9UDY8). As to the kind of experiment: Inhibitory effect on MALT1 enzyme activity (Ac-LRSR-AMC substrate, fluorescence 460 nm). Type of data set: biochemical. Conditions: 10 nM FL MALT1, Ac-LRSR-AMC substrate, 50 min pre-incubation, 4 h reaction. An outline of the steps:
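Full-length MALT1 (10 nM) pre-incubated 50 min at room temperature with compound (11-point 3-fold series from 1000 nM), then 4 h reaction with […] Ac-LRSR-AMC in Tris pH 7.5, 0.6 M citrate, DTT, EDTA, BSA, 1.5% DMSO. Fluorescence at 460 nm; IC50 from four-parameter fit.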

Data set [3] relates to OCI-LY3 cell subcutaneous xenograft tumor. As to the kind of experiment: Tumor inhibition in OCI-LY3 subcutaneous xenograft NOG mouse model of human diffuse large B-cell lymphoma. It is filed as in vivo. The settings on record: NOG mice, 30 mg, BID × 4 weeks, oral; for Weight Day 28: in g (unit assumed); for Tumor volume (Mean ± SD) Day 28: vehicle group 1274 ± 82. Here is the method: The efficacy of test drugs was evaluated in OCI-LY3 mouse subcutaneous tumor model of human diffuse large B-cell lymphoma
• 1. Animal: NOG mice, female, 6-8 weeks old, weighing 18-22 grams, a total of 65 mice were needed. Provided by Beijing Vital River Laboratory Animal Technology Co., Ltd. or other qualified suppliers. • 2. Cell: Human diffuse large B-cell lymphoma OCI-LY3 cells were cultured in vitro as monolayers and conventional digestion treatment with trypsin-EDTA was carried out twice a week for passage. When the cell confluence was 80%-90% and the number reached the required number, cells were collected, counted, and inoculated. • 3. Grouping for vaccination: Cells (5×10^6 cells+Matrigel/0.2 ml) were inoculated subcutaneously into each mouse. The growth of animals and transplanted tumors were observed regularly. When the tumor grew to a volume of about 150-200 mm^3, the tumor volume of each mouse was calculated, and the mice were divided into random groups according to tumor volume and body weight. The calculation formula of tumor volume was V=0.5a×b^2, wherein a and b represented the long and short diameters of the tumor, respectively. • 4. Administration: According to the grouping results, the test drug was started to be administered (administration method: oral administration; Administration volume: 10 mL/kg; Administration frequency: 2 times/day; Administration cycle: 28 days; Vehicle: 10% solutol HS15-0.25% CMC-Na). Tumors were measured and weighed twice a week after starting administration of test drugs. • 5. Animals were euthanized after the experiment. • 6. Data processing: The tumor inhibitory efficacy of the compound was evaluated by TGI (%) or relative tumor proliferation rate T/C (%). TGI (%) reflects the tumor growth inhibition rate. Calculation of TGI (%): TGI (%)=[(1−(average tumor volume at the end of administration in a treatment group−average tumor volume at the beginning of administration in the treatment group))/(average tumor volume at the end of administration in the solvent control group−average tumor volume at the beginning of administration in the solvent control group)]×100%.
Relative tumor proliferation rate T/C (%): The calculation formulas are as follows: T/C %=TRTV/CRTV×100% (TRTV: RTV of treatment group; CRTV: RTV of negative control group). The relative tumor volume (RTV) was calculated based on the results of tumor measurement. The calculation formula is RTV=Vt/V0, where V0 is the average tumor volume measured at grouping for administration (i.e. d0), Vt is the average tumor volume at a certain measurement, and TRTV and CRTV take the data on the same day.
After the experiment, the tumor weight was measured, and the T/Cweight percentage was calculated. Tweight and Cweight represented the tumor weight of the administration group and the vehicle control group, respectively.
Remarks: The data in parentheses indicate the tumor volume corresponding to the vehicle group (i.e., the control group) at the corresponding time in this example.
On the technique in general: In xenograft studies the graft and the host belong to different species.

MALT1 protease activity in TMD8 cells (substrate BCL-10), sequence (Q9UDY8 whole entry): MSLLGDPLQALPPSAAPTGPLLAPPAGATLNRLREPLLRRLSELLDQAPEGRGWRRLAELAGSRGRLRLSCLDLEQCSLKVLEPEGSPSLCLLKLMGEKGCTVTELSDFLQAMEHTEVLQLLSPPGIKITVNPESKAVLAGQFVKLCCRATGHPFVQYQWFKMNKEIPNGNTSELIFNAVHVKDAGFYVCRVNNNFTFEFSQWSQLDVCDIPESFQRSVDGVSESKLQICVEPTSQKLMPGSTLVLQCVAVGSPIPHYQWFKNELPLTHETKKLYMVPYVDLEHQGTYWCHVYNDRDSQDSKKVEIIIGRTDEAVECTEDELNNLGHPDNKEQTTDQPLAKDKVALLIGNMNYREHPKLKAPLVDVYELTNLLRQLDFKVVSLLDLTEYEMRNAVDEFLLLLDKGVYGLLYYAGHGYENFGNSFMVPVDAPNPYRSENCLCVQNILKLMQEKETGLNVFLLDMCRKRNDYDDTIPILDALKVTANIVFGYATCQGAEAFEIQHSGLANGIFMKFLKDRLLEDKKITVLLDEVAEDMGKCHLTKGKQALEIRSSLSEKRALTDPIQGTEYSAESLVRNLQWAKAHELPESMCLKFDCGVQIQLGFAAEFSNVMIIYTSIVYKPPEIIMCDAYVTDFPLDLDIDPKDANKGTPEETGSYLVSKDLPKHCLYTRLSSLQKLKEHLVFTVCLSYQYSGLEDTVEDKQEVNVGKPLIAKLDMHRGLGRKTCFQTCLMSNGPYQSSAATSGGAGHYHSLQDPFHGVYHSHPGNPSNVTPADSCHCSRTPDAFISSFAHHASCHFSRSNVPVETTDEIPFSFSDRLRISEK
Recombinant human MALT1/MLT protein, sequence (Q9UDY8 whole entry): as above

As usually defined, the IC50 is the concentration needed to halve the response being measured. With `O=C(Nc1cnc(-n2nccn2)c(C(F)(F)F)c1)c1cnn(-c2ccc3c4c(cccc24)C(=O)N3)c1C(F)(F)F` [Example 18, N-(6-(2H-1,2,3-triazol-2-yl)-5-trifluoromethylpyridin-3-yl)-1-(2-oxo-1,2-dihydrobenzo[cd]indol-6-yl)-5-trifluoromethyl-1H-pyrazole-4-carboxamide], in data set [1], the IC50 turned out to be 61 nM. Further, the IC50 in data set [2] came to 24 nM. In data set [3], the “TGI (%) Day 28” value worked out at 62.73%, the “ΔT/ΔC(%) Day 28” value was found to be 43.82%, the “Weight Day 28” value came out at 21.03 ± 0.42 and the “Tumor volume (Mean ± SD) Day 28” value was 635 ± 46 (1274 ± 82) mm^3.

`O=C(Nc1ccc(-n2nccn2)c(Cl)c1)c1cnn(-c2ccc3c4c(cccc24)C(=O)N3)c1C(F)(F)F` [Example 53, N-(3-chloro-4-(2H-1,2,3-triazol-2-yl)phenyl)-1-(2-oxo-1,2-dihydrobenzo[cd]indol-6-yl)-5-(trifluoromethyl)-1H-pyrazole-4-carboxamide]: in data set [1], the IC50 was 56 nM. For the same compound, the IC50 in data set [2] came out at 25 nM. Also, in data set [3], the “TGI (%) Day 28” value worked out at 67.23%, the “ΔT/ΔC(%) Day 28” value came to 41.76%, the “Weight Day 28” value is on record as 20.06 ± 1.08 and the “Tumor volume (Mean ± SD) Day 28” value is 519 ± 89 (1274 ± 82) mm^3.

Regarding `O=C(Nc1ccnc(C(F)(F)F)c1)c1cnn(-c2ccc3c4c(cccc24)C(=O)N3)c1C1CC1` [Example 55, 5-cyclopropyl-1-(2-oxo-1,2-dihydrobenzo[cd]indol-6-yl)-N-(2-(trifluoromethyl)pyridin-4-yl)-1H-pyrazole-4-carboxamide], in data set [1], the IC50 stood at 50 nM. Besides, the half-inhibitory concentration (IC50) in data set [2] was found to be 171 nM. In addition, in data set [3], the “TGI (%) Day 28” value came out at 87.99%, the “ΔT/ΔC(%) Day 28” value was 22.76%, the “Weight Day 28” value amounted to 21.15 ± 0.72 and the “Tumor volume (Mean ± SD) Day 28” value is on record as 287 ± 25 (1274 ± 82) mm^3.
